The values below are quoted from earlier work in patent US20220265629A1, “TREATMENT OF SYSTOLIC DYSFUNCTION AND HEART FAILURE WITH REDUCED EJECTION FRACTION WITH THE COMPOUND (R)-4-(1-((3-(DIFLUOROMETHYL)-1-METHYL-1H-PYRAZOL-4-YL)SULFONYL)-1-FLUOROETHYL)-N-(ISOXAZOL-3-YL)PIPERIDINE-1-CARBOXAMIDE” (MyoKardia, Inc., priority 2019, published 2022).

Molecules are shown by their SMILES.

One series concerns healthy volunteers. The note with it: correlated with increase in SET; cited from earlier work.
The test system of the next series is HFrEF. The note with it: Teerlink et al.; cited from earlier work.

`COC(=O)N1CCN(Cc2cccc(NC(=O)Nc3ccc(C)nc3)c2F)CC1` [omecamtiv mecarbil]: in the series on healthy volunteers, the “ischemia at high doses” value was “resulted in ischemia”. In addition, the troponin entry with HFrEF is “Mild troponin elevation”.
